This is an account of results in ChEMBL document CHEMBL3352636, “Rational design, synthesis and anti-proliferative evaluation of novel benzosuberone tethered with hydrazide-hydrazones” (2014).

Assay type in all cases: functional
The nature of assay [1]: Growth inhibition of human IMR32 cells after 48 hrs by SRB assay. To be noted: IMR-32, 48 h.
The next assay concerns MDA-MB-231. As to the kind of experiment: Growth inhibition of human MDA-MB-231 cells after 48 hrs by SRB assay. The settings on record: MDA-MB-231, 48 h. (In SRB staining, fixed cells bind dye roughly in proportion to their protein.)
Another assay relates to HeLa. Nature of the assay: Growth inhibition of human HeLa cells after 48 hrs by SRB assay.
Assay [2] can be described thus: Growth inhibition of human MiaPaCa cells after 48 hrs by SRB assay. The settings on record: MIA PaCa-2, 48 h.

The structures appear in SMILES notation.

With `Cc1cc2c(cc1C)C(Cl)=C(/C=N/NC(=O)c1cccc3ccccc13)CCC2`, the GI50 (in general, the concentration at which growth is held to half of that of the control) came out at 3.9 µM in assay [1], 0.71 µM in the assay on MDA-MB-231, 1 µM in the assay on HeLa and 4.6 µM in assay [2].
The matching figures for `Cc1ccc(/C=N\NC(=O)C2=C(Cl)c3ccccc3CCC2)cc1`: 0.14 µM, 0.26 µM, 2.3 µM and under 0.01 µM.
`COc1cccc(/C=N\NC(=O)C2=C(Cl)c3ccccc3CCC2)c1`: the GI50 in assay [1] was under 0.01 µM; with MDA-MB-231 it was 0.3 µM; in the assay on HeLa it was 15.6 µM; in assay [2], under 0.01 µM.
`COc1ccc(/C=N\NC(=O)C2=C(Cl)c3ccccc3CCC2)c(OC)c1`: the GI50 is 14.9 µM in assay [1], 0.29 µM in the assay with MDA-MB-231, 38.5 µM with HeLa and 2.7 µM in assay [2].
The matching figures for `COc1cc(/C=N\NC(=O)C2=C(Cl)c3ccccc3CCC2)cc(OC)c1OC`: under 0.01 µM, under 0.01 µM, 8.2 µM and 1.4 µM.
The matching figures for `O=C(N/N=C\c1ccc(Cl)cc1)C1=C(Cl)c2ccccc2CCC1`: 0.14 µM, 0.26 µM, 2.3 µM and under 0.01 µM.
The matching figures for `O=C(N/N=C\c1ccc(F)cc1)C1=C(Cl)c2ccccc2CCC1`: 0.27 µM, 0.41 µM, 1.3 µM and under 0.01 µM.
For the molecule `O=C(N/N=C\C1=C(Cl)c2ccccc2CCC1)C1=C(Cl)c2ccccc2CCC1`, the GI50 in assay [1] was found to be 2.2 µM; with MDA-MB-231, 3 µM; in the assay on HeLa, 1 µM; in assay [2], 1.6 µM.
The matching figures for `Cc1cc2c(cc1C)C(Cl)=C(/C=N\NC(=O)C1=C(Cl)c3ccccc3CCC1)CCC2`: 0.67 µM, 3.1 µM, 4.5 µM and 0.21 µM.
As for `COc1cc(/C=N\NC(=O)C2=C(Cl)c3cc(C)c(C)cc3CCC2)cc(OC)c1OC`, the GI50 is 4.1 µM in assay [1], 1.2 µM in the assay on MDA-MB-231, 21 µM in the assay with HeLa and 5.8 µM in assay [2].
Taken in the same sequence, the figures for `Cc1cc2c(cc1C)C(Cl)=C(C(=O)N/N=C\c1ccc(Cl)cc1)CCC2` were 18.3 µM, 0.41 µM, 1.6 µM and 0.44 µM.
Taken in the same sequence, the figures for `Cc1cc2c(cc1C)C(Cl)=C(C(=O)N/N=C\c1ccc(F)cc1)CCC2` were 3.5 µM, 0.84 µM, 2.2 µM and 0.36 µM.
In the case of `Cc1cc2c(cc1C)C(Cl)=C(C(=O)N/N=C\C1=C(Cl)c3ccccc3CCC1)CCC2`, the GI50 is 2.4 µM in assay [1], 7.7 µM in the assay on MDA-MB-231, over 100 µM with HeLa and 6 µM in assay [2].
Regarding `Cc1cc2c(cc1C)C(Cl)=C(/C=N\NC(=O)C1=C(Cl)c3cc(C)c(C)cc3CCC1)CCC2`, the GI50 in assay [1] was 59.9 µM; in the assay on MDA-MB-231, 78.2 µM; in the assay with HeLa it was over 100 µM; in assay [2], 6 µM.
In the case of `O=C(N/N=C/C1=C(Cl)c2ccccc2CCC1)c1ccccc1`, the GI50 in assay [1] was 16.1 µM; in the assay with MDA-MB-231 it was 11.1 µM; with HeLa it was over 100 µM; in assay [2] it was 1 µM.
Taken in the same sequence, the figures for `Cc1ccc(C(=O)N/N=C/C2=C(Cl)c3ccccc3CCC2)cc1` were 0.3 µM, 0.71 µM, 0.3 µM and 10 µM.
The matching figures for `COc1cccc(C(=O)N/N=C/C2=C(Cl)c3ccccc3CCC2)c1C`: 26.5 µM, 0.29 µM, 9.2 µM and 0.7 µM.
The matching figures for `COc1cc(C(=O)N/N=C/C2=C(Cl)c3ccccc3CCC2)cc(OC)c1OC`: 75.6 µM, 30 µM, 0.77 µM and 69.3 µM.
As to `O=C(N/N=C/C1=C(Cl)c2ccccc2CCC1)c1cccc(Cl)c1`, the 50% growth inhibitory concentration (GI50) was 27.3 µM in assay [1], 16.3 µM in the assay on MDA-MB-231, 19.2 µM in the assay with HeLa and 78.4 µM in assay [2].
For `Nc1ccccc1C(=O)N/N=C/C1=C(Cl)c2ccccc2CCC1`, the GI50 in assay [1] is 51 µM; in the assay with MDA-MB-231 it was 5 µM; in the assay with HeLa it was over 100 µM; in assay [2], 65.1 µM.
Taken in the same sequence, the figures for `O=C(N/N=C/C1=C(Cl)c2ccccc2CCC1)c1ccc([N+](=O)[O-])cc1` were 26 µM, 3.8 µM, over 100 µM and 2.3 µM.
As to `COc1cc(C(=O)N/N=C/C2=C(Cl)c3ccccc3CCC2)c([N+](=O)[O-])cc1OC`, the GI50 in assay [1] is 2.7 µM; in the assay on MDA-MB-231 it was over 100 µM; with HeLa it was 1.1 µM; in assay [2] it was 10.9 µM.
On to `O=C(N/N=C/C1=C(Cl)c2ccccc2CCC1)c1cccnc1`, for which the GI50 was 0.15 µM in assay [1], 91.7 µM with MDA-MB-231, 7.5 µM with HeLa and 11.7 µM in assay [2].
As to `O=C(N/N=C/C1=C(Cl)c2ccccc2CCC1)c1cccc(I)c1`, the GI50 in assay [1] amounted to 7.6 µM; in the assay with MDA-MB-231, 55.2 µM; in the assay with HeLa, 6.3 µM; in assay [2], 1.6 µM.
As for `O=C(N/N=C/C1=C(Cl)c2ccccc2CCC1)c1cccc(C(F)(F)F)c1`, the GI50 in assay [1] worked out at 2 µM; with MDA-MB-231, 94.3 µM; with HeLa it was 16.3 µM; in assay [2], 5.8 µM.
The matching figures for `O=C(N/N=C/C1=C(Cl)c2ccccc2CCC1)c1cccc2ccccc12`: 9.2 µM, 12.1 µM, 4.7 µM and 13.6 µM.
With `Cc1cc2c(cc1C)C(Cl)=C(/C=N/NC(=O)c1ccccc1)CCC2`, the concentration for 50% growth inhibition (GI50) is 1.8 µM in assay [1], 2.5 µM in the assay with MDA-MB-231, over 100 µM in the assay on HeLa and over 100 µM in assay [2].
As to `Cc1ccc(C(=O)N/N=C/C2=C(Cl)c3cc(C)c(C)cc3CCC2)cc1`, the GI50 in assay [1] was 0.1 µM; with MDA-MB-231, 32.9 µM; in the assay on HeLa, over 100 µM; in assay [2], 28.8 µM.
Taken in the same sequence, the figures for `COc1cccc(C(=O)N/N=C/C2=C(Cl)c3cc(C)c(C)cc3CCC2)c1C` were 0.17 µM, 10 µM, 0.3 µM and 2 µM.
The matching figures for `COc1cc(C(=O)N/N=C/C2=C(Cl)c3cc(C)c(C)cc3CCC2)cc(OC)c1OC`: 20.9 µM, 0.46 µM, 0.76 µM and 2.3 µM.
With `Cc1cc2c(cc1C)C(Cl)=C(/C=N/NC(=O)c1cccc(Cl)c1)CCC2`, the GI50 was over 100 µM in assay [1], 1.93 µM in the assay with MDA-MB-231, 0.77 µM with HeLa and 33.6 µM in assay [2].
The matching figures for `Cc1cc2c(cc1C)C(Cl)=C(/C=N/NC(=O)c1ccccc1N)CCC2`: 36.3 µM, 3.7 µM, over 100 µM and 0.81 µM.
As for `COc1cc(C(=O)N/N=C/C2=C(Cl)c3cc(C)c(C)cc3CCC2)c([N+](=O)[O-])cc1OC`, the GI50 in assay [1] is 13.8 µM; in the assay with MDA-MB-231, 0.22 µM; with HeLa, 2 µM; in assay [2], 1.6 µM.
Taken in the same sequence, the figures for `Cc1cc2c(cc1C)C(Cl)=C(/C=N/NC(=O)c1cccnc1)CCC2` were 8.4 µM, 5.4 µM, 0.65 µM and 1.6 µM.
On to `Cc1cc2c(cc1C)C(Cl)=C(/C=N/NC(=O)c1cccc(I)c1)CCC2`, for which the GI50 is 1.9 µM in assay [1], 1.2 µM in the assay on MDA-MB-231, over 100 µM in the assay with HeLa and 4.3 µM in assay [2].
The matching figures for `Cc1cc2c(cc1C)C(Cl)=C(/C=N/NC(=O)c1cccc(C(F)(F)F)c1)CCC2`: 7.8 µM, under 0.01 µM, 6.8 µM and 12.2 µM.
For `COc1cccc2c1C(=O)c1c(O)c3c(c(O)c1C2=O)C[C@@](O)(C(=O)CO)C[C@@H]3O[C@H]1C[C@H](N)[C@H](O)[C@H](C)O1` [DOXORUBICIN], the GI50 in assay [1] amounted to 0.023 µM; in the assay with MDA-MB-231, 0.085 µM; in the assay on HeLa it was 0.073 µM; in assay [2], 0.097 µM.
The matching figures for `CC(=O)O[C@H]1C(=O)[C@@]2(C)[C@H]([C@H](OC(=O)c3ccccc3)[C@]3(O)C[C@H](OC(=O)[C@H](O)[C@@H](NC(=O)c4ccccc4)c4ccccc4)C(C)=C1C3(C)C)[C@]1(OC(C)=O)CO[C@@H]1C[C@@H]2O` [PACLITAXEL]: 0.075 µM, 0.091 µM, 0.025 µM and 0.056 µM.
